Results from paper PMC12396409, “Screening and hit evaluation of a microbial metabolite library against the pathogenic Plasmodium falciparum and Toxoplasma gondii parasites” (International Journal for Parasitology: Drugs and Drug …, 2025).
Read-outs that look alike come from different tables or passages of the source. Where a SMILES comes first, the peptide text is derived from it. Bridges are numbered along the chain shown (N, C = ends). The star is where a group is joined. X2 = CCCCCCCCCCCC(O)CC(=O)*

What was measured:
[1] = system: P. falciparum 3D7 parasites; assay: P. falciparum growth inhibition assay, 2-cycle (120 h treatment), delayed-death screen and dose-response; format: cell-based, Plasmodium falciparum; conditions: for activity at 2 µg/mL: Plasmodium falciparum, 3D7, 120 h
[2] = system: P. falciparum 3D7 parasites; assay: P. falciparum growth inhibition assay, 1-cycle (72 h treatment), SYBR DNA staining (library screen at 2 μg/mL and dose-response); format: cell-based, Plasmodium falciparum; conditions: for activity at 2 µg/mL: Plasmodium falciparum, 3D7, 72 h
[3] = system: T. gondii RH strain (RH-Tub-eYFP) tachyzoites; assay: microbe, parasite or virus in culture; format: cell-based, Toxoplasma gondii; conditions: 72 h; for percent parasite growth at 2 µg/mL: Toxoplasma gondii
[4] = library screen at 2 μg/mL, 120 h, % growth, replicate 1
[5] = library screen at 2 μg/mL, 120 h, % growth, replicate 2
[6] = library screen at 2 μg/mL, 72 h, % growth, replicate 1
[7] = library screen at 2 μg/mL, 72 h, % growth, replicate 2
[8] = library screen at 2 μg/mL, % growth, replicate 1
[9] = library screen at 2 μg/mL, % growth, replicate 2
[10] = P. falciparum 3D7, 120 h, library screen at 2 μg/mL, % growth, replicate 1
[11] = P. falciparum 3D7, 120 h, library screen at 2 μg/mL, % growth, replicate 2
[12] = P. falciparum 3D7, 72 h, library screen at 2 μg/mL, % growth, replicate 1
[13] = P. falciparum 3D7, 72 h, library screen at 2 μg/mL, % growth, replicate 2
[14] = T. gondii RH, library screen at 2 μg/mL, % growth, replicate 1
[15] = T. gondii RH, library screen at 2 μg/mL, % growth, replicate 2

Enniatin A was tested, and the Pf_120h_%Growth_Rep1 [1, 4] was 12.21%, the Pf_120h_%Growth_Rep2 [1, 5] was 16.45% and the Pf_72h_%Growth_Rep1 [2, 6] was 2.40%. For the same compound, the Pf_72h_%Growth_Rep2 [2, 7] was -1.22%, the Tg_72h_%Growth_Rep1 [3, 8] was 2.24% and the Tg_72h_%Growth_Rep2 [3, 9] was 14.07%.

For `CNC[C@@H]1CC[C@@H](N)[C@@H](O[C@H]2[C@H](O)[C@@H](O[C@H]3OC[C@](C)(O)[C@H](NC)[C@H]3O)[C@H](N)C[C@@H]2N)O1` [Gentamicin C2b], the Pf_120h_%Growth_Rep1 [1, 4] was 7.99%, the Pf_120h_%Growth_Rep2 [1, 5] was 7.07% and the Pf_72h_%Growth_Rep1 [2, 6] was 6.39%. It also gave a Pf_72h_%Growth_Rep2 [2, 7] of 7.30%, a Tg_72h_%Growth_Rep1 [3, 8] of 152.97% and a Tg_72h_%Growth_Rep2 [3, 9] of 86.04%.

`CCCCCCCCCCCC(O)CC(=O)NC(CC(C)C)C(=O)NC(CCC(=O)O)C(=O)NC1C(=O)NC(C(C)CC)C(=O)NC(CC(C)C)C(=O)NC(CO)C(=O)NC(CC(C)C)C(=O)NC(CC(C)C)C(=O)NC(CO)C(=O)NC(C(C)C)C(=O)OC1C` (stereo not drawn) [BIA-O1430] (X2-LETILSLLSV; ester 3-C; configuration not given here) showed a Pf_120h_%Growth_Rep1 ([1]; P. falciparum 3D7, 120 h, parasite screen at 2 μg/mL, % growth, replicate 1) of 85.46%, a Pf_120h_%Growth_Rep2 ([1]; P. falciparum 3D7, 120 h, parasite screen at 2 μg/mL, % growth, replicate 2) of 72.71% and a Pf_72h_%Growth_Rep1 ([2]; P. falciparum 3D7, 72 h, parasite screen at 2 μg/mL, % growth, replicate 1) of 78.47%. The Pf_72h_%Growth_Rep2 ([2]; P. falciparum 3D7, 72 h, parasite screen at 2 μg/mL, % growth, replicate 2) was 76.87%, the Tg_72h_%Growth_Rep1 ([3]; T. gondii, parasite screen at 2 μg/mL, % growth, replicate 1) was 121.77% and the Tg_72h_%Growth_Rep2 ([3]; T. gondii, parasite screen at 2 μg/mL, % growth, replicate 2) was 92.49%.

For `CCC(=O)[C@@H](C)[C@@H](O)[C@H](C)C[C@@H](C)[C@H]1OC(=O)C[C@@]2(O)CC=C(C)[C@H](O2)/C(C)=C/CCC[C@@H](O[C@H]2C[C@@H](O)[C@H](O)[C@@H](C)O2)/C=C/[C@H](C)C[C@H]1C` [Venturicidin B], the Pf_120h_%Growth_Rep1 ([1]; P. falciparum, 120 h, screen at 2 μg/mL, replicate 1) was 23.65%, the Pf_120h_%Growth_Rep2 ([1]; P. falciparum, 120 h, screen at 2 μg/mL, replicate 2) was 5.91% and the Pf_72h_%Growth_Rep1 ([2]; P. falciparum, 72 h, screen at 2 μg/mL, replicate 1) was 25.34%. For the same compound, the Pf_72h_%Growth_Rep2 ([2]; P. falciparum, 72 h, screen at 2 μg/mL, replicate 2) was 5.57%, the Tg_72h_%Growth_Rep1 ([3]; T. gondii, screen at 2 μg/mL, replicate 1) was 0.31% and the Tg_72h_%Growth_Rep2 ([3]; T. gondii, screen at 2 μg/mL, replicate 2) was 1.90%.

`COc1c(O)c2c(=O)cc3c4c5c(cc(=O)c6c(O)c(OC)c(C[C@H](C)OC(C)=O)c(c(c1C[C@H](C)OC(C)=O)c24)c65)OCO3` [Diacetylcercosporin] was tested, and the Pf_120h_%Growth_Rep1 [1, 4] was -5.54%, the Pf_120h_%Growth_Rep2 [1, 5] was 6.35% and the Pf_72h_%Growth_Rep1 [2, 6] was 2.60%. It also gave a Pf_72h_%Growth_Rep2 [2, 7] of 15.99%, a Tg_72h_%Growth_Rep1 [3, 8] of 4.49% and a Tg_72h_%Growth_Rep2 [3, 9] of 14.87%.

`COC(=O)C1(O)CC2OC1(C)n1c3ccccc3c3c4c(c5c6ccccc6n2c5c31)CNC4=O` (stereo not drawn) [BIA-K1225] was tested, and the Pf_120h_%Growth_Rep1 [1, 10] was 29.46%, the Pf_120h_%Growth_Rep2 [1, 11] was 12.07% and the Pf_72h_%Growth_Rep1 [2, 12] was 4.93%. For the same compound, the Pf_72h_%Growth_Rep2 [2, 13] was 0.48%, the Tg_72h_%Growth_Rep1 [3, 14] was -1.01% and the Tg_72h_%Growth_Rep2 [3, 15] was 0.85%.

For `COC1C(O)CC(=O)OC(C)CC=CC=CC(O)C(C)CC(CC=O)C1OC1OC(C)C(OC2CC(C)(O)C(OC(=O)CC(C)C)C(C)O2)C(N(C)C)C1O` (stereo not drawn) [BIA-L1538], the Pf_120h_%Growth_Rep1 [1, 10] was 5.60%, the Pf_120h_%Growth_Rep2 [1, 11] was 17.51% and the Pf_72h_%Growth_Rep1 [2, 12] was 49.92%. For the same compound, the Pf_72h_%Growth_Rep2 [2, 13] was 67.33%, the Tg_72h_%Growth_Rep1 [3, 14] was 16.93% and the Tg_72h_%Growth_Rep2 [3, 15] was 20.94%.

For `COc1cccc2c1C(=O)c1c(O)c3c(c(O)c1C2=O)C[C@@](O)(C(=O)CO)C[C@@H]3O[C@H]1C[C@H](N)[C@H](O)[C@H](C)O1` [Doxorubicin], the activity at 2 µg/mL ([1]; library screen at 2 μg/mL, 120 h, % growth, replicate 1, read-out: Pf_120h_%Growth_Rep1) was 15.8%, the activity at 2 µg/mL ([1]; library screen at 2 μg/mL, 120 h, % growth, replicate 2, read-out: Pf_120h_%Growth_Rep2) was 35.7% and the activity at 2 µg/mL ([2]; library screen at 2 μg/mL, 72 h, % growth, replicate 1, read-out: Pf_72h_%Growth_Rep1) was 51.3%. It also gave an activity at 2 µg/mL ([2]; library screen at 2 μg/mL, 72 h, % growth, replicate 2, read-out: Pf_72h_%Growth_Rep2) of 57.9%, a percent parasite growth at 2 µg/mL ([3]; library screen at 2 μg/mL, % growth, replicate 1, read-out: Tg_72h_%Growth_Rep1) of 214% and a percent parasite growth at 2 µg/mL ([3]; library screen at 2 μg/mL, % growth, replicate 2, read-out: Tg_72h_%Growth_Rep2) of 123%.
